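Cultured in 96-well plates, cells were exposed to test compound for 48 hours across five concentrations. At the TGI there is no net growth.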
Columns and labels:
Assay in all cases: NCI tumour cell line growth inhibition, 48 h
SR leukemia = test system: SR leukemia
RXF 393 renal = test system: RXF 393 renal
HL-60(TB) leukemia = test system: HL-60(TB) leukemia
HOP-92 NSCLC = test system: HOP-92 NSCLC
SK-MEL-2 melanoma = test system: SK-MEL-2 melanoma
OVCAR-4 ovarian = test system: OVCAR-4 ovarian
HCT-116 colon = test system: HCT-116 colon
LOX IMVI melanoma = test system: LOX IMVI melanoma
RPMI-8226 leukemia = test system: RPMI-8226 leukemia
SNB-19 CNS = test system: SNB-19 CNS
A498 renal = test system: A498 renal
COLO 205 colon = test system: COLO 205 colon
OVCAR-3 ovarian = test system: OVCAR-3 ovarian
HT29 colon = test system: HT29 colon
UACC-62 melanoma = test system: UACC-62 melanoma
SF-295 CNS = test system: SF-295 CNS
M14 melanoma = test system: M14 melanoma
U251 CNS = test system: U251 CNS
EKVX NSCLC = test system: EKVX NSCLC
HCC-2998 colon = test system: HCC-2998 colon
TK-10 renal = test system: TK-10 renal
KM12 colon = test system: KM12 colon
SK-OV-3 ovarian = test system: SK-OV-3 ovarian
A549 NSCLC = test system: A549 NSCLC
NCI/ADR-RES ovarian = test system: NCI/ADR-RES ovarian
UO-31 renal = test system: UO-31 renal
ACHN renal = test system: ACHN renal
OVCAR-8 ovarian = test system: OVCAR-8 ovarian
NCI-H522 lung = test system: NCI-H522 lung
T-47D breast = test system: T-47D breast
MDA-MB-231 breast = test system: MDA-MB-231 breast
PC-3 prostate = test system: PC-3 prostate
SF-268 CNS = test system: SF-268 CNS
OVCAR-5 ovarian = test system: OVCAR-5 ovarian
MALME-3M melanoma = test system: MALME-3M melanoma
BT-549 breast = test system: BT-549 breast
SN12C renal = test system: SN12C renal
786-0 renal = test system: 786-0 renal
MOLT-4 leukemia = test system: MOLT-4 leukemia
SNB-75 CNS = test system: SNB-75 CNS
HOP-62 NSCLC = test system: HOP-62 NSCLC
MCF7 breast = test system: MCF7 breast
NCI-H460 lung = test system: NCI-H460 lung
CCRF-CEM leukemia = test system: CCRF-CEM leukemia
NCI-H23 lung = test system: NCI-H23 lung
DU-145 prostate = test system: DU-145 prostate
HCT-15 colon = test system: HCT-15 colon
SK-MEL-28 melanoma = test system: SK-MEL-28 melanoma
IGROV1 ovarian = test system: IGROV1 ovarian
MDA-N = test system: MDA-N
NCI-H226 lung = test system: NCI-H226 lung
MDA-MB-435 = test system: MDA-MB-435
SW-620 colon = test system: SW-620 colon
SK-MEL-5 melanoma = test system: SK-MEL-5 melanoma
HS 578T breast = test system: HS 578T breast
UACC-257 melanoma = test system: UACC-257 melanoma
SF-539 CNS = test system: SF-539 CNS
K-562 leukemia = test system: K-562 leukemia
CAKI-1 renal = test system: CAKI-1 renal

## COc1ccc(CCN2C(=O)C=CC2=O)cc1OC
SR leukemia
  TGI: 6.7 µM
RXF 393 renal
  TGI: 19.9 µM
HL-60(TB) leukemia
  TGI: 21.5 µM
HOP-92 NSCLC
  TGI: 40.1 µM
SK-MEL-2 melanoma
  TGI: 14.8 µM
OVCAR-4 ovarian
  TGI: 5.07 µM
HCT-116 colon
  TGI: 11.2 µM
LOX IMVI melanoma
  TGI: 36.9 µM
RPMI-8226 leukemia
  TGI: 3.18 µM
SNB-19 CNS
  TGI: 37.2 µM
A498 renal
  TGI: 33.1 µM
COLO 205 colon
  TGI: 3.54 µM
OVCAR-3 ovarian
  TGI: 36.4 µM
HT29 colon
  TGI: 13.7 µM
UACC-62 melanoma
  TGI: 31 µM
SF-295 CNS
  TGI: 33.5 µM
M14 melanoma
  TGI: 24.1 µM
U251 CNS
  TGI: 39.1 µM
EKVX NSCLC
  TGI: 41.1 µM
HCC-2998 colon
  TGI: 34.8 µM
TK-10 renal
  TGI: 33.2 µM
KM12 colon
  TGI: 40.8 µM
SK-OV-3 ovarian
  TGI: 33 µM
A549 NSCLC
  TGI: 50.2 µM
NCI/ADR-RES ovarian
  TGI: 74.5 µM
UO-31 renal
  TGI: 3.05 µM
ACHN renal
  TGI: 3.17 µM
OVCAR-8 ovarian
  TGI: 44.1 µM
NCI-H522 lung
  TGI: 3.17 µM
T-47D breast
  TGI: 31.9 µM
MDA-MB-231 breast
  TGI: 28.5 µM
PC-3 prostate
  TGI: 35.1 µM
SF-268 CNS
  TGI: 54.4 µM
OVCAR-5 ovarian
  TGI: 35.6 µM
MALME-3M melanoma
  TGI: 29.8 µM
BT-549 breast
  TGI: 35.3 µM
SN12C renal
  TGI: 32.5 µM
786-0 renal
  TGI: 8.15 µM
MOLT-4 leukemia
  TGI: 5.49 µM
SNB-75 CNS
  TGI: 36.1 µM
HOP-62 NSCLC
  TGI: 53.8 µM
MCF7 breast
  TGI: 39.7 µM
NCI-H460 lung
  TGI: 46.8 µM
CCRF-CEM leukemia
  TGI: 2.93 µM
NCI-H23 lung
  TGI: 53.8 µM
DU-145 prostate
  TGI: 31 µM
HCT-15 colon
  TGI: 3.83 µM
SK-MEL-28 melanoma
  TGI: 31.4 µM
IGROV1 ovarian
  TGI: 36.7 µM
MDA-N
  TGI: 33.5 µM
NCI-H226 lung
  TGI: 13 µM
MDA-MB-435
  TGI: 34 µM
SW-620 colon
  TGI: 5.65 µM
SK-MEL-5 melanoma
  TGI: 31.5 µM
HS 578T breast
  TGI: 99.6 µM
UACC-257 melanoma
  TGI: 30.9 µM
SF-539 CNS
  TGI: 31.3 µM
K-562 leukemia
  TGI: > 100 µM
CAKI-1 renal
  TGI: 27.4 µM

## COc1cc(N(CCC#N)CCC#N)ccc1/C=C1\SC(=S)NC1=O
SR leukemia
  TGI: > 100 µM
RXF 393 renal
  TGI: > 100 µM
HL-60(TB) leukemia
  TGI: > 100 µM
HOP-92 NSCLC
  TGI: > 100 µM
SK-MEL-2 melanoma
  TGI: > 100 µM
OVCAR-4 ovarian
  TGI: > 100 µM
HCT-116 colon
  TGI: > 100 µM
LOX IMVI melanoma
  TGI: > 100 µM
RPMI-8226 leukemia
  TGI: > 100 µM
SNB-19 CNS
  TGI: > 100 µM
A498 renal
  TGI: > 100 µM
COLO 205 colon
  TGI: > 100 µM
OVCAR-3 ovarian
  TGI: > 100 µM
HT29 colon
  TGI: > 100 µM
UACC-62 melanoma
  TGI: > 100 µM
SF-295 CNS
  TGI: > 100 µM
M14 melanoma
  TGI: > 100 µM
U251 CNS
  TGI: > 100 µM
EKVX NSCLC
  TGI: > 100 µM
HCC-2998 colon
  TGI: > 100 µM
TK-10 renal
  TGI: > 100 µM
KM12 colon
  TGI: > 100 µM
SK-OV-3 ovarian
  TGI: > 100 µM
A549 NSCLC
  TGI: > 100 µM
NCI/ADR-RES ovarian
  TGI: > 100 µM
UO-31 renal
  TGI: > 100 µM
ACHN renal
  TGI: > 100 µM
OVCAR-8 ovarian
  TGI: > 100 µM
NCI-H522 lung
  TGI: > 100 µM
T-47D breast
  TGI: > 100 µM
MDA-MB-231 breast
  TGI: > 100 µM
PC-3 prostate
  TGI: > 100 µM
SF-268 CNS
  TGI: > 100 µM
OVCAR-5 ovarian
  TGI: > 100 µM
MALME-3M melanoma
  TGI: > 100 µM
BT-549 breast
  TGI: > 100 µM
SN12C renal
  TGI: > 100 µM
786-0 renal
  TGI: > 100 µM
MOLT-4 leukemia
  TGI: > 100 µM
SNB-75 CNS
  TGI: > 100 µM
HOP-62 NSCLC
  TGI: > 100 µM
MCF7 breast
  TGI: > 100 µM
NCI-H460 lung
  TGI: > 100 µM
CCRF-CEM leukemia
  TGI: > 100 µM
NCI-H23 lung
  TGI: > 100 µM
DU-145 prostate
  TGI: > 100 µM
HCT-15 colon
  TGI: > 100 µM
SK-MEL-28 melanoma
  TGI: > 100 µM
IGROV1 ovarian
  TGI: > 100 µM
MDA-N
  TGI: > 100 µM
NCI-H226 lung
  TGI: > 100 µM
MDA-MB-435
  TGI: > 100 µM
SW-620 colon
  TGI: > 100 µM
SK-MEL-5 melanoma
  TGI: > 100 µM
HS 578T breast
  TGI: > 100 µM
UACC-257 melanoma
  TGI: > 100 µM
SF-539 CNS
  TGI: > 100 µM
K-562 leukemia
  TGI: > 100 µM
CAKI-1 renal
  TGI: > 100 µM

## COc1cc(O)c2c(O)c3c(c4c2c1[C@]1(C4)C(C)=CCCC1(C)C)[C@H](O)[C@@]1(O)CC(=O)C(C(N)=O)=C(O)[C@@]1(O)C3=O
SR leukemia
  TGI: 1.45 µM
RXF 393 renal
  TGI: 2.13 µM
HL-60(TB) leukemia
  TGI: 0.485 µM
HOP-92 NSCLC
  TGI: 1.6 µM
SK-MEL-2 melanoma
  TGI: 0.695 µM
OVCAR-4 ovarian
  TGI: 1.39 µM
HCT-116 colon
  TGI: 1.3 µM
LOX IMVI melanoma
  TGI: 1.71 µM
RPMI-8226 leukemia
  TGI: 1.18 µM
SNB-19 CNS
  TGI: 1.94 µM
A498 renal
  TGI: 0.743 µM
COLO 205 colon
  TGI: 0.24 µM
OVCAR-3 ovarian
  TGI: 1.38 µM
HT29 colon
  TGI: 1.08 µM
UACC-62 melanoma
  TGI: 1.95 µM
SF-295 CNS
  TGI: 1.07 µM
M14 melanoma
  TGI: 1.58 µM
U251 CNS
  TGI: 1.17 µM
EKVX NSCLC
  TGI: 1.06 µM
TK-10 renal
  TGI: 1.18 µM
KM12 colon
  TGI: 1.24 µM
SK-OV-3 ovarian
  TGI: 1.43 µM
A549 NSCLC
  TGI: 1.38 µM
NCI/ADR-RES ovarian
  TGI: 1.5 µM
UO-31 renal
  TGI: 1.27 µM
ACHN renal
  TGI: 1.19 µM
OVCAR-8 ovarian
  TGI: 1.73 µM
NCI-H522 lung
  TGI: 0.332 µM
T-47D breast
  TGI: 1.81 µM
MDA-MB-231 breast
  TGI: 1.17 µM
PC-3 prostate
  TGI: 0.834 µM
SF-268 CNS
  TGI: 1.81 µM
OVCAR-5 ovarian
  TGI: 1.23 µM
MALME-3M melanoma
  TGI: 0.675 µM
BT-549 breast
  TGI: 1.54 µM
SN12C renal
  TGI: 1.25 µM
786-0 renal
  TGI: 1.62 µM
MOLT-4 leukemia
  TGI: 1.76 µM
SNB-75 CNS
  TGI: 0.794 µM
HOP-62 NSCLC
  TGI: 1.51 µM
MCF7 breast
  TGI: 1.23 µM
NCI-H460 lung
  TGI: 0.664 µM
CCRF-CEM leukemia
  TGI: 0.185 µM
NCI-H23 lung
  TGI: 1.34 µM
DU-145 prostate
  TGI: 2.43 µM
HCT-15 colon
  TGI: 1.45 µM
SK-MEL-28 melanoma
  TGI: 2.15 µM
IGROV1 ovarian
  TGI: 1.94 µM
MDA-N
  TGI: 1.72 µM
NCI-H226 lung
  TGI: 0.951 µM
MDA-MB-435
  TGI: 1.2 µM
SW-620 colon
  TGI: 1.2 µM
SK-MEL-5 melanoma
  TGI: 0.399 µM
HS 578T breast
  TGI: 2.25 µM
UACC-257 melanoma
  TGI: 0.931 µM
SF-539 CNS
  TGI: 0.965 µM
K-562 leukemia
  TGI: 1.52 µM
CAKI-1 renal
  TGI: 0.972 µM

Source: PubChem BioAssay (NCI)
